tested on: Ba/F3 LMNA-NTRK1-G667C cells; assay: Proliferation of Ba/F3 LMNA-NTRK1-G667C cells (CellTiter-Glo); format: cell-based, mouse; details: Mus musculus, BaF3, 72 h, Table 4; 72 hours; read-out: Ba/F3 LMNA-NTRK1-G667C, IC50
From the text: Ba/F3 LMNA-NTRK1-G667C is a stable transgenic cell line constructed by KYinno Biotechnology Co., Ltd. on mouse primary B cell Ba/F3 wherein NTRK1 has a mutation of G to Cat position 667 and is highly expressed and fused with LMNA to form LMNA-NTRK1-G667C. • [Test method]: Promega's CellTiter-Glo® Luminescent Cell Viability Assay kit was used to evaluate the inhibitory activity of the compounds on the proliferation of Ba/F3 LMNA-NTRK1-G667C cells. • [Instrument]: Spectramax M3 multifunctional microplate reader from Molecular Devices. • [Test materials]: Ba/F3 LMNA-NTRK1-G667C cell line (constructed by KYinno Co., Ltd. (Beijing)), 96-well transparent flat-bottomed black-walled cell culture plate (Corning, cat #3603), RPMI-1640 media (GE, cat #SH30027.01), fetal bovine serum FBS (Thermo Fisher, cat #10099-141), CellTiter-Glo® Luminescent Cell Viability Assay kit (Promega, cat #G7572), PBS (Solarbio, cat #P1020), DMSO (Sigma, cat #D2650). • [Experimental procedure]: When resuscitating Ba/F3 LMNA-NTRK1-G667C cells, the freezing tube was quickly shaken in a 37° C. water bath to melt within 1 minute. The thawed cell suspension was mixed uniformly with RPMI1640 medium containing 10% FBS, centrifuged at 1000 rpm for 5 minutes, and the supernatant discarded. 5 mL of complete medium (RPMI1640 medium with 10% FBS) was taken to resuspend the cell pellets, charged into a cell culture flask with a bottom area of 25 cm^2, and incubated in a cell incubator at 37° C., 95% humidity and 5% CO2. Cells were allowed to passage when the number of cells reached about 10^6 cells/mL. For cell passage, the old cell suspension was directly pipetted evenly, 1/5 of the cell suspension was kept, 4 mL of new complete medium was added, after pipetting evenly, the cell flask was placed in the cell incubator for further culturing. Cell plating was performed when the number of cells reached about 10^6 cells/mL again. For cell plating, 1/5 of the cell suspension was kept for further culturing as in the cell passage method, and the remaining 4/5 of the cell suspension was placed in a 15 mL centrifuge tube, detected for cell viability by Trypan blue exclusion method to ensure that cell viability was above 90%. A cell suspension with a density of 5.56×10^4 viable cells/mL was prepared with complete medium, and 90 μL of such cell suspension was added to a 96-well cell culture plate to obtain the cell density of 5000 viable cells/mL in the cell culture plate. A control group containing no cells, no compound and only complete medium (i.e. culture medium control) and a control group containing no compound but containing cells (i.e. cell control) were set. The cell plate was placed in a cell incubator overnight. The 10 mM compound stock solution in DMSO was first serially diluted with DMSO at a dilution factor of 3.16 times, to obtain 9 concentrations, and the 10th concentration was set as DMSO control without compound. Then, PBS was used to dilute the DMSO solutions of compounds of different concentrations, at a dilution factor of 100 times, so that the DMSO concentration in the compound solution of each concentration was 1%. Finally, 10 μL of each of the above solutions was added to the corresponding cell culture plate, so that the initial compound concentration was 10 μM, with the remaining concentrations being successively diluted at a dilution factor of 3.16 times, and the DMSO content in the cell culture plate was 0.1%. The cell plate was placed in a cell incubator and cultured for 72 hours. For endpoint detection, the CellTiter-Glo reagent was melted, and the cell plate was moved to room temperature to equilibrate for 30 minutes, added with 100 μL of CellTiter-Glo for each well, and shaken on an orbital shaker for 5 minutes to fully lyse the cells. The plate was kept at room temperature for 20 minutes to stabilize the luminescence signal, and the luminescence value of each well was scanned with a multi-functional microplate reader at full wavelength. • [Test samples] […]

Compared with `O=C(Nc1cnn2ccc(N3CCC[C@@H]3c3cc(F)ccc3F)nc12)N1CC[C@H](O)C1` [LOXO-101, Larotrectinib, reference compound], `Cn1ncc2cc(Oc3ccc(NC(=O)c4ccc(C5CC5)n(-c5ccc(F)cc5)c4=O)cc3F)c(-c3cn[nH]c3)cc21` [Example 2, N-(3-fluoro-4-(1-methyl-6-(1H-pyrazol-4-yl)-1H-indazol-5-yloxy)phenyl)-1-(4-fluorophenyl)-6-cyclopropyl-2-oxo-1,2-dihydmpyridine-3-carboxamide] is 2200-fold lower in IC50: 2.41 µM for the first, 0.0011 µM for the second.

`CC(C)c1ccc(C(=O)Nc2ccc(Oc3cc4cnn(C)c4cc3-c3cn[nH]c3)c(F)c2)c(=O)n1-c1ccc(F)cc1` [Example 6, N-(3-fluoro-4-(1-methyl-6-(1H-pyrazol-4-yl)-1H-indazol-5-yloxy)phenyl)-1-(4-fluorophenyl)-6-isopropyl-2-oxo-1,2-dihydropyridine-3-carboxamide] and `CCc1ccc(C(=O)Nc2ccc(Oc3cc4cnn(C)c4cc3-c3cn[nH]c3)c(F)c2)c(=O)n1-c1ccc(F)cc1` [Example 5, N-(3-fluoro-4-(1-methyl-6-(1H-pyrazol-4-yl)-1H-indazol-5-yloxy)phenyl)-1-(4-fluorophenyl)-6-ethyl-2-oxo-1,2-dihydropyridine-3-carboxamide] cannot be ordered by IC50: 0.00066 µM for the first, < 0.001 µM for the second.

First: CCn1ncc2cc(Oc3ccc(NC(=O)c4ccc(C)n(-c5ccc(F)cc5)c4=O)cc3F)c(-c3cn[nH]c3)cc21 [Example 3, N-(3-fluoro-4-(1-ethyl-6-(1H-pyrazol-4-yl)-1H-indazol-5-yloxy)phenyl)-1-(4-fluorophenyl)-6-methyl-2-oxo-1,2-dihydmpyridine-3-carboxamide]
Second: Cc1ccc(C(=O)Nc2ccc(Oc3cc4cnn(C(C)C)c4cc3-c3cn[nH]c3)c(F)c2)c(=O)n1-c1ccc(F)cc1 [Example 4, N-(3-fluoro-4-(1-isopropyl-6-(1H-pyrazol-4-yl)-1H-indazol-5-yloxy)phenyl)-1-(4-fluorophenyl)-6-methyl-2-oxo-1,2-dihydmpyridine-3-carboxamide]
The IC50 of the first is 1.8-fold lower: 0.0016 µM for the first, 0.0028 µM for the second. The first is the more potent here.

same assay, conditions: Mus musculus, BaF3, Table 4-1; separate test; read-out: Ba/F3 LMNA-NTRK1-G667C, IC50

In order of falling IC50:
1. CCn1ncc2cc(Oc3ccc(NC(=O)c4ccc(C5CC5)n(-c5ccc(F)cc5)c4=O)cc3F)c(-c3cn[nH]c3)cc21 [Example 19, N-(3-fluoro-4-(1-ethyl-6-(1H-pyrazol-4-yl)-1H-indazol-5-yloxy)phenyl)-1-(4-fluorophenyl)-6-cyclopropyl-2-oxo-1,2-dihydropyridine-3-carboxamide]  0.002 µM
2. CCn1ncc2cc(Oc3ccc(NC(=O)c4ccc(OC)n(-c5ccc(F)cc5)c4=O)cc3F)c(-c3cn[nH]c3)cc21 [Example 23, N-(3-fluoro-4-(1-ethyl-6-(1H-pyrazol-4-yl)-1H-indazol-5-yloxy)phenyl)-1-(4-fluorophenyl)-6-methoxy-2-oxo-1,2-dihydropyridine-3-carboxamide]  0.001 µM
3. CCc1ccc(C(=O)Nc2ccc(Oc3cc4cnn(CC)c4cc3-c3cn[nH]c3)c(F)c2)c(=O)n1-c1ccc(F)cc1 [Example 18, N-(3-fluoro-4-(1-ethyl-6-(1H-pyrazol-4-yl)-1H-indazol-5-yloxy)phenyl)-1-(4-fluorophenyl)-6-ethyl-2-oxo-1,2-dihydropyridine-3-carboxamide]  0.001 µM

same assay, conditions: Mus musculus, BaF3, Table 4-2; separate test; read-out: Ba/F3 LMNA-NTRK1-G667C, IC50

In order of rising IC50:
1. CCOc1ccc(C(=O)Nc2ccc(Oc3cc4cnn(C)c4cc3-c3cn[nH]c3)c(F)c2)c(=O)n1-c1ccc(F)cc1 [Example 14, N-(3-fluoro-4-(1-methyl-6-(1H-pyrazol-4-yl)-1H-indazol-5-yloxy)phenyl)-1-(4-fluorophenyl)-6-ethoxy-2-oxo-12-dihydropyridine-3-carboxamide]  0.0086 µM
2. CSc1ccc(C(=O)Nc2ccc(Oc3cc4cnn(C)c4cc3-c3cn[nH]c3)c(F)c2)c(=O)n1-c1ccc(F)cc1 [Example 11, N-(3-fluoro-4-(1-methyl-6-(1H-pyrazol-4-yl)-1H-indazol-5-yloxy)phenyl)-1-(4-fluorophenyl)-6-methylthio-2-oxo-1,2-dihydropyidine-3-carboxamide]  0.0105 µM
3. CC(C)Oc1ccc(C(=O)Nc2ccc(Oc3cc4cnn(C)c4cc3-c3cn[nH]c3)c(F)c2)c(=O)n1-c1ccc(F)cc1 [Example 16, N-(3-fluoro-4-(1-methyl-6-(1H-pyrazol-4-yl)-1H-indazol-5-yloxy)phenyl)-1-(4-fluorophenyl)-6-isopropoxy-2-oxo-1,2-dihydropyridine-3-carboxamide]  0.0107 µM
4. Cn1ncc2cc(Oc3ccc(NC(=O)c4ccc(OC5CC5)n(-c5ccc(F)cc5)c4=O)cc3F)c(-c3cn[nH]c3)cc21 [Example 15, N-(3-fluoro-4-(1-methyl-6-(1H-pyrazol-4-yl)-1H-indazol-5-yloxy)phenyl)-1-(4-fluorophenyl)-6-cyclopropoxy-2-oxo-1,2-dihydropyridine-3-carboxamide]  0.0108 µM
5. CCn1ncc2cc(Oc3ccc(NC(=O)c4ccc(OC(C)C)n(-c5ccc(F)cc5)c4=O)cc3F)c(-c3cn[nH]c3)cc21 [Example 26, N-(3-fluoro-4-(1-ethyl-6-(1H-pyrazol-4-yl)-1H-indazol-5-yloxy)phenyl)-1-(4-fluorophenyl)-6-isopropoxy-2-oxo-1,2-dihydropyridine-3-carboxamide]  0.0175 µM

same assay, conditions: Mus musculus, BaF3, Table 9; read-out: Ba/F3 LMNA-NTRK1-G667C cell proliferation inhibitory activity (IC50)

In order of falling IC50:
1. Cc1ccc(C(=O)Nc2ccc(Oc3cc4cnn5c4c(c3-c3cn[nH]c3)CC5)c(F)c2)c(=O)n1-c1ccc(F)cc1 [Example 31, N-(4-((5-(1H-pyrazol-4-yl)-6,7-dihydropyrrolo[3,2,1-hi]-indazol-4-yl)oxy)-3-fluorophenyl)-1-(4-fluorophenyl)-6-methyl-2-oxo-1,2-dihydropyridine-3-carboxamide]  0.033 µM
2. CC(C)Oc1ccc(C(=O)Nc2ccc(Oc3cc4cnn5c4c(c3-c3cn[nH]c3)CC5)c(F)c2)c(=O)n1-c1ccc(F)cc1 [Example 34, N-(4-((5-(1H-pyrazol-4-yl)-6,7-dihydropyrrolo[3,2,1-hi]-indazol-4-yl)oxy)-3-fluorophenyl)-1-(4-fluorophenyl)-6-isopropoxy-2-oxo-12-dihydropyrndine-3-carboxamide]  0.0237 µM
3. COc1ccc(C(=O)Nc2ccc(Oc3cc4cnn5c4c(c3-c3cn[nH]c3)CC5)c(F)c2)c(=O)n1-c1ccc(F)cc1 [Example 28, N-(4-((5-(1H-pyrazol-4-yl)-6,7-dihydropyrrolo[3,2,1-hi]-indazol-4-yl)oxy)-3-fluorophenyl)-1-(4-fluorophenyl)-6-methoxy-2-oxo-1,2-dihydropyidine-3-carboxamide]  0.0198 µM
4. CCOc1ccc(C(=O)Nc2ccc(Oc3cc4cnn5c4c(c3-c3cn[nH]c3)CC5)c(F)c2)c(=O)n1-c1ccc(F)cc1 [Example 32, N-(4-((5-(1H-pyrazol-4-yl)-6,7-dihydropyrrolo[3,2,1-hi]-indazol-4-yl)oxy)-3-fluorophenyl)-6-ethoxy-1-(4-fluorophenyl)-2-oxo-12-dihydropyridine-3-carboxamide]  0.019 µM

same assay, conditions: Table 4-2; separate test; read-out: Ba/F3 LMNA-NTRK1-G667C, IC50

In the case of `CCOc1ccc(C(=O)Nc2ccc(Oc3cc4cnn(CC)c4cc3-c3cn[nH]c3)c(F)c2)c(=O)n1-c1ccc(F)cc1` [Example 24, N-(3-fluoro-4-(1-ethyl-6-(1H-pyrazol-4-yl)-1H-indazol-5-yloxy)phenyl)-1-(4-fluorophenyl)-6-ethoxy-2-oxo-12-dihydropyridine-3-carboxamide], the IC50 is reported as 0.0173 µM.
